Results on 2 compounds are retold here after US20210032369A1, “METHODS RELATED TO PARKINSON?S DISEASE AND SYNUCLEINOPATHIES” (The Scripps Research Institute, priority 2018, published 2021).

The test system of this assay is Pα-syn* aggregates in PFF-seeded primary hippocampal neurons. Briefly: Autophagy modulation assay: Pα-syn* aggregates in PFF-seeded primary hippocampal neurons. As to conditions: treated from day 3.5 to day 6 post-PFF exposure, rapamycin 300 nM, chloroquine 1 μM, 3-Methyladenine 1 mM, 200 cells counted blinded, versus vehicle. Format: cell-based, mouse.

Molecules are shown by their SMILES.

Procedure: Primary neuronal cultures and PFFs seeding: Primary neuronal cultures were prepared from E16-E18 C57BL/6 mouse brains (Charles River Laboratories) using standard procedures. For immunofluorescence experiments, dissociated hippocampal neurons were plated onto poly-L-lysine coated glass coverslips placed in 24-well plates, at a cell density of 125,000 cells/well. For biochemical assays, dissociated cortical neurons were plated onto poly-L-lysine-coated 6-well plates at a cell density of 1,000,000 cells/well. Neuronal cultures were seeded with PFFs at 5-6 days in vitro (DIV). […] Just before seeding, PFFs were diluted in PBS at 0.1 mg/ml, sonicated during 30 sec (0.5 sec ON, 0.5 sec OFF, power 30%), and diluted in neuronal media. Two μg/ml PFFs (final) per well were added on 24-well plates for immunofluorescence experiments, and 4 μg/ml PFFs (final) per well were added to 6-well plates for biochemical assays. In the case of control conditions, an equivalent volume of PBS was added to the neuronal cultures. Autophagy modulation assays: Dissociated hippocampal neurons were plated onto poly-L-lysine coated glass coverslips placed in 24-well plates, at a cell density of 125,000 cells/well and seeded with PFFs (or equivalent volume of PBS for the control) at 5-6 DIV. […] Thereafter, neuronal cultures were grown for an extra 2.5 days until a total of 6 days after PFF seeding, were fixed and processed for immunofluorescence. In order to assess the effect of autophagy modulation on Pα-syn* generation, a total of 200 cells per treatment were evaluated and the number of Pα-syn* aggregates per cells was counted in a blinded fashion at 100× magnification. Immunofluorescence experiments: Neurons were fixed for 30 min at room temperature with 4% (w/v) paraformaldehyde in PBS containing 4% (w/v) sucrose. Neurons were washed with PBS, permeabilized with 0.2% (v/v) Triton X-100 in PBS for 6 min, washed again in PBS and blocked for 1 hour at room temperature. […]

Consider `CCN(CC)CCCC(C)Nc1ccnc2cc(Cl)ccc12` (stereo not drawn) [chloroquine], for which the “number of Pα-syn* aggregates per cell” value is reported as “fewer”.

Turning to `Cn1cnc(N)c2ncnc1-2` [3-Methyladenine], the “number of Pα-syn* aggregates per cell” value was “decrease”. Further, the “number of Pα-syn* aggregates per cell” value (listed as 3-MA) was “fewer”.
